How the values were obtained:
BSA = BSA (Bos taurus, UniProt P02769); assay: Fluorimetric titration with BSA, Scatchard equation; type: binding, bovine; details: I = 0.05 M; for Kd: pH 7, sodium cacodylate buffer, read-out: Binding constant logKs BSA (converted)
Protocol: Experiments were conducted in an aqueous buffer solution (pH = 7.0 or pH= 5.0, I = 0.05 M, sodium cacodylate buffer). For the UV-Vis spectra were used Varian Cary 100 Bio spectrometer, for fluorescence spectra we used the Varian Cary Eclipse fluorimeter and for CD spectra we used the JASCO J815 spectropolarimeter, all conducted at 25.0 °C using appropriate quartz cuvettes (path length: 1 cm).
As the pharmacokinetic properties of small molecules often depend on a binding affinity toward transport proteins (such as serum albumin), we performed fluorimetric titrations with BSA. The emission of both 1M and 2M (Supplementary Information, Figures S15 and S16), was strongly quenched, with compound 2M showing a lower affinity in comparison to ds-DNA/RNA, while the affinity of 1M was similar to that towards ds-DNA/RNA (Table 2).
Processing of fluorimetric titrations by means of the Scatchard equation [56, 57] yielded binding constants (Table 2). […] Affinities of 1 and 2 toward BSA were the same at both pH values, supporting the conclusion that neutral forms of 1 and 2 were bound.

A549 cells [1] = assay: MTT cell viability assay, A549, with or without UV light; type: cell-based, human; details: for Ratio of IC50 non-irradiated vs UV-irradiated: A549; for Cytotoxic effect: A549, 10 μM and 1 μM, without UV; for Cytotoxic effect / IC50: MTT; for IC50: Homo sapiens, light or radiation study, 72 h
Protocol: Cells. Commercially available from American Type Culture Collection (ATCC), human epithelial lung adenocarcinoma A549 (ATCC® CCL-185™) and human normal lung fibroblast WI-38 (ATCC® CCL-75™) were grown according to supplier’s conditions, namely in Dulbecco Modified Eagle’s Medium (DMEM, Sigma Aldrich, St. Louis, MO, USA) supplemented with 10% of fetal bovine serum (FBS, Sigma Aldrich, USA). Cells were incubated in the cell incubator (Thermo Fischer Scientific, Waltham, MA, USA) at 37 °C and 5% CO2 in a humidified atmosphere.
Cell viability assay. In order to obtain a 10 mM stock solution chemical compounds (2M, 1, and 1M) were sterilely diluted in an appropriate volume of dimethyl sulfoxide solution (DMSO, Gram-Mol, Zagreb, Croatia). Solutions were kept in the dark and stored at 4 °C. The cytotoxic effects of each compound were assayed on A549 and WI-38 cells. […] Briefly, cells were seeded in 96-well tissue culture plates and 24 h later treated with 2M, 1, or 1M in the concentration range of 10–0.1 μM. Cells treated with the same dilutions of DMSO represented the control, while cells treated only with DMEM (10% FBS) represented the negative control. After 72 h, the media was removed, MTT solution was added into each well, and the plate was incubated (37 °C, 5% CO2) for 3 h. The resulting MTT-formazan products were dissolved using DMSO, and their absorbance at 600 nm was measured using a microplate reader.
For determining the effect of UV exposure, cells were seeded on two plates and treated with working solutions of the respective compounds as previously described. Plates were incubated (37 °C, 5% CO2) for 90 min, allowing the compounds to enter the cells. Then, one plate was exposed to UV light (Luzchem reactor, 350 nm, 8 lamps, in total 8 W, dose 50.6 mWm^−2; ~18 cm lamp to cell-plate) for 5 min, 3 days in a row at the same time each day, while the other plate was left in the cell incubator in the dark and served as a control.

pUC19 plasmid DNA = assay: Plasmid electrophoresis, photoinduced DNA nuclease activity; type: biochemical; details: 100 μM compound; for Photo-induced nuclease activity on plasmid DNA: 1 μg pUC19, UV light 15 and 45 s; for Effect on plasmid DNA forms without UV irradiation: 1 μg pUC19, non-irradiated
Protocol: Plasmid electrophoresis. For assessing the photoinduced DNA nuclease activity of compounds 2M, 1 and 1M, 1 μg of pUC19 plasmid DNA (2686 pb) was incubated with a 100 μM solution of the respective compound, and exposed to UV light (using a xenon arc lamp, Oriel, Stratford, CT, USA) for 15 and 45 s. After the treatment plasmid samples were run on 0.5% agarose gel, and stained with Midori Green DNA binding dye (Nippon Genetics, Düren, Germany). Non-irradiated samples containing compounds and plasmid DNA served as a control for assessing the photoinduced nuclease activity of the compound. Plasmid without the compound was irradiated with UV light under the same conditions to determine whether UV light itself induces changes in plasmid DNA forms (linear and supercoiled form). After gel electrophoresis, plasmid DNA forms were visualised on a UVITEC Imager (Cleaver Scientific, Rugby, UK).

A549 cells [2] = assay: Detection of total ROS (DCF, flow cytometry); type: cell-based, human; details: A549, 10 µM
Protocol: Detection of total ROS. For detecting total ROS, A549 cells were seeded in 12-well tissue culture plates and 24 h after were treated with a 10 μM working solution of the respective compound and incubated for 90 min (37 °C, 5% CO2), allowing the compound to enter to cells. The same dilution of DMSO served as a control, while H2O2 (0.002%) was used as a positive control. One plate was irradiated with UV light (350 nm) for 5 min, and was analysed immediately after UV exposure. The plate that was not irradiated with UV light served as the control, and was incubated in the cell incubator (37°C, 5% CO2) during the whole experiment. Subsequently, cells were washed with PBS, trypsinised, resuspended with cold PBS supplemented with 10% FBS and centrifuged for 5 min (RT, 1100 g). Cell pellets were resuspended and washed again, but this time with cold PBS supplemented with 1% FBS and centrifuged for 5 min (RT, 1100 g). After the second washing, cell pellets were resuspended in 5 μM 2′,7′–dichloro-fluorescin diacetate (H2DCFDA, Sigma, USA) which is converted to dichlorofluorescein (DCF) in contact with ROS. Unstained cells were resuspended in PBS supplemented with 1% FBS. Cells were then analysed by flow cytometry using FACSCalibur (BD Biosciences, San Jose, CA, USA).

A549 cells [3] = assay: Cell size (FSC) and complexity (SSC) by flow cytometry; type: cell-based, human; details: A549, 10 µM, UV irradiation
Protocol: To corroborate further the observed phenomena, we determined morphology changes in 2M-, 1-, and 1M-treated A549 cells after exposing them to UV light. Morphology changes were determined by flow cytometry, which allows the assessment of cell size (FSC) and complexity (SSC). […] This increase was the most pronounced in cells treated with 1 and 1M.

[4] = A549, UV-irradiated (350 nm, 5 min, 3 days in a row)

Chain of BSA (P02769 25-607): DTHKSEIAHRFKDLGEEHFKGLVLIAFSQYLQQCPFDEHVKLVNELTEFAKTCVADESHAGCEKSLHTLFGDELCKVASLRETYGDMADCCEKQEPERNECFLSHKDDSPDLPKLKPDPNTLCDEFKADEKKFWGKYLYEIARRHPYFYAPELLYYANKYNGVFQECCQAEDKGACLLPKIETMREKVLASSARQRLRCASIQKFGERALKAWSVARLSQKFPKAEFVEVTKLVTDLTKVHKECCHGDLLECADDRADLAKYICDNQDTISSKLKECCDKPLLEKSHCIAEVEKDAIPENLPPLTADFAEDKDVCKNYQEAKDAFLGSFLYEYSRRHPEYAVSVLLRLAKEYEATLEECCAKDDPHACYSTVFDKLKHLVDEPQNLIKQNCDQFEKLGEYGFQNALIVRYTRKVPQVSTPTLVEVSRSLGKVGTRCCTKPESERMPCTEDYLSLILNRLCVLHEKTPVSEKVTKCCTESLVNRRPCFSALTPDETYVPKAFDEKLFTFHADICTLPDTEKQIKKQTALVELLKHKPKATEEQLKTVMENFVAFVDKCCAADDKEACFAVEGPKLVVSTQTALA

| Structure (SMILES) | Kd (BSA) [nM] | Ratio of IC50 non-irradiated vs UV-irradiated (A549 cells [1]) | Cytotoxic effect (A549 cells [1]) | IC50 (A549 cells [1]; [4]) [nM] | IC50 (A549 cells [1]; A549, non-irradiated) [nM] | Photo-induced nuclease activity on plasmid DNA (pUC19 plasmid DNA) | Effect on plasmid DNA forms without UV irradiation (pUC19 plasmid DNA) | Intracellular ROS production (A549 cells [2]; UV light 350 nm 5 min) | Intracellular ROS production (A549 cells [2]; kept in dark) | Cell size (FSC) (A549 cells [3]) | Binding constant logKs BSA (BSA; pH 5, sodium cacodylate buffer) |
| --- | --- | --- | --- | --- | --- | --- | --- | --- | --- | --- | --- |
| C[n+]1ccc(-c2cc3ccc4cccc5ccc(c2)c3c45)cc1 [1M, 2-para-N-methylpyridinium pyrene] | 3980 | 15 | considerable cytotoxic effects | 100 | 1500 | strong photo-induced nuclease activity | nicking of the plasmid DNA | immediate and strong increase in ROS production | induced the production of intracellular ROS | increase in cell size |  |
| C[n+]1ccc(-c2cc3ccc4cc(-c5cc[n+](C)cc5)cc5ccc(c2)c3c45)cc1 [2M] | 126 | four times | considerable cytotoxic effects | 2000 | 8000 | strong photo-induced nuclease activity | unwinding of supercoiled DNA even without UV irradiation | immediate and strong increase in ROS production |  | increase in cell size |  |
| c1cc2ccc3cc(-c4ccncc4)cc4ccc(c1)c2c34 [compound 1] | 3160 | four times | considerable cytotoxic effects | 2000 | 8000 | did not show any influence on DNA plasmid forms |  | immediate and strong increase in ROS production |  | increase in cell size | 5.5 |

— PMC9696974 (Pharmaceutics, 2022)
